In patent US12428412B2 (DANA-FARBER CANCER INSTITUTE, INC., priority 2018, dated 2025):
Entries after “also recorded” stand apart in the source; their conditions may differ.

Experiments:
[1] = target: T1, CBP (Mus musculus, UniProt P45481); experiment: Immunohistochemistry (IHC) staining of liver from MTD study, CBP; type: in vivo; settings: normal mice, 40 mpk, 14-day treatment
T1 construct: from tissue; host or cells: mouse liver (CD1 mice)
From the text: (§1) Immunohistochemistry (IHC) staining was used to examine a liver from MTD study. […] No changes in CBP and H3K27Ac levels were observed.

[2] = Maximum tolerated dose (MTD) study in mice; type: in vivo; settings: mice, 10, 20 and 40 mg/kg
Procedure: CPD 1 was tested in mice for maximum tolerated dose (MTD) (FIG. 6A). The mice were treated with 10 mg/kg (mpk), 20 mpk, and 40 mpk with 4 mice in each group. The compound was also tested in human CRBN knock in mice, the blood samples were collected after 21 day treatment. All the tested blood samples were normal.

[3] = system: Kelly cells; experiment: ATPlite cell growth inhibition assay, Kelly cell lines treated 72 hours; type: cell-based
Procedure: Compounds CPD 1 to CPD 22 were tested via ATPlite™ assay (ATPlite™ 1000 assay kit, PerkinElmer®, USA) using standard protocol. […] The signal is normalized to DMSO treated cells.

[4] = In vivo study blood analysis; settings: mice, after 14 days
From the text: Blood samples were taken from mice treated daily with 40 mpk intraperitoneal injection (IP) after 14 days.

[5] = target: T2, CBP (Homo sapiens, UniProt Q92793); experiment: Immunoblot in CRBN knockout Kelly cell lines, CBP; type: cell-based; settings: CRBN-1 and CRBN-3 Kelly lines, 500 nM
T2 construct: endogenous in cells; host or cells: Kelly neuroblastoma cells (incl. Ch2.2, LACZ and CRBN knockout lines)
T2 sequence (Q92793 whole entry): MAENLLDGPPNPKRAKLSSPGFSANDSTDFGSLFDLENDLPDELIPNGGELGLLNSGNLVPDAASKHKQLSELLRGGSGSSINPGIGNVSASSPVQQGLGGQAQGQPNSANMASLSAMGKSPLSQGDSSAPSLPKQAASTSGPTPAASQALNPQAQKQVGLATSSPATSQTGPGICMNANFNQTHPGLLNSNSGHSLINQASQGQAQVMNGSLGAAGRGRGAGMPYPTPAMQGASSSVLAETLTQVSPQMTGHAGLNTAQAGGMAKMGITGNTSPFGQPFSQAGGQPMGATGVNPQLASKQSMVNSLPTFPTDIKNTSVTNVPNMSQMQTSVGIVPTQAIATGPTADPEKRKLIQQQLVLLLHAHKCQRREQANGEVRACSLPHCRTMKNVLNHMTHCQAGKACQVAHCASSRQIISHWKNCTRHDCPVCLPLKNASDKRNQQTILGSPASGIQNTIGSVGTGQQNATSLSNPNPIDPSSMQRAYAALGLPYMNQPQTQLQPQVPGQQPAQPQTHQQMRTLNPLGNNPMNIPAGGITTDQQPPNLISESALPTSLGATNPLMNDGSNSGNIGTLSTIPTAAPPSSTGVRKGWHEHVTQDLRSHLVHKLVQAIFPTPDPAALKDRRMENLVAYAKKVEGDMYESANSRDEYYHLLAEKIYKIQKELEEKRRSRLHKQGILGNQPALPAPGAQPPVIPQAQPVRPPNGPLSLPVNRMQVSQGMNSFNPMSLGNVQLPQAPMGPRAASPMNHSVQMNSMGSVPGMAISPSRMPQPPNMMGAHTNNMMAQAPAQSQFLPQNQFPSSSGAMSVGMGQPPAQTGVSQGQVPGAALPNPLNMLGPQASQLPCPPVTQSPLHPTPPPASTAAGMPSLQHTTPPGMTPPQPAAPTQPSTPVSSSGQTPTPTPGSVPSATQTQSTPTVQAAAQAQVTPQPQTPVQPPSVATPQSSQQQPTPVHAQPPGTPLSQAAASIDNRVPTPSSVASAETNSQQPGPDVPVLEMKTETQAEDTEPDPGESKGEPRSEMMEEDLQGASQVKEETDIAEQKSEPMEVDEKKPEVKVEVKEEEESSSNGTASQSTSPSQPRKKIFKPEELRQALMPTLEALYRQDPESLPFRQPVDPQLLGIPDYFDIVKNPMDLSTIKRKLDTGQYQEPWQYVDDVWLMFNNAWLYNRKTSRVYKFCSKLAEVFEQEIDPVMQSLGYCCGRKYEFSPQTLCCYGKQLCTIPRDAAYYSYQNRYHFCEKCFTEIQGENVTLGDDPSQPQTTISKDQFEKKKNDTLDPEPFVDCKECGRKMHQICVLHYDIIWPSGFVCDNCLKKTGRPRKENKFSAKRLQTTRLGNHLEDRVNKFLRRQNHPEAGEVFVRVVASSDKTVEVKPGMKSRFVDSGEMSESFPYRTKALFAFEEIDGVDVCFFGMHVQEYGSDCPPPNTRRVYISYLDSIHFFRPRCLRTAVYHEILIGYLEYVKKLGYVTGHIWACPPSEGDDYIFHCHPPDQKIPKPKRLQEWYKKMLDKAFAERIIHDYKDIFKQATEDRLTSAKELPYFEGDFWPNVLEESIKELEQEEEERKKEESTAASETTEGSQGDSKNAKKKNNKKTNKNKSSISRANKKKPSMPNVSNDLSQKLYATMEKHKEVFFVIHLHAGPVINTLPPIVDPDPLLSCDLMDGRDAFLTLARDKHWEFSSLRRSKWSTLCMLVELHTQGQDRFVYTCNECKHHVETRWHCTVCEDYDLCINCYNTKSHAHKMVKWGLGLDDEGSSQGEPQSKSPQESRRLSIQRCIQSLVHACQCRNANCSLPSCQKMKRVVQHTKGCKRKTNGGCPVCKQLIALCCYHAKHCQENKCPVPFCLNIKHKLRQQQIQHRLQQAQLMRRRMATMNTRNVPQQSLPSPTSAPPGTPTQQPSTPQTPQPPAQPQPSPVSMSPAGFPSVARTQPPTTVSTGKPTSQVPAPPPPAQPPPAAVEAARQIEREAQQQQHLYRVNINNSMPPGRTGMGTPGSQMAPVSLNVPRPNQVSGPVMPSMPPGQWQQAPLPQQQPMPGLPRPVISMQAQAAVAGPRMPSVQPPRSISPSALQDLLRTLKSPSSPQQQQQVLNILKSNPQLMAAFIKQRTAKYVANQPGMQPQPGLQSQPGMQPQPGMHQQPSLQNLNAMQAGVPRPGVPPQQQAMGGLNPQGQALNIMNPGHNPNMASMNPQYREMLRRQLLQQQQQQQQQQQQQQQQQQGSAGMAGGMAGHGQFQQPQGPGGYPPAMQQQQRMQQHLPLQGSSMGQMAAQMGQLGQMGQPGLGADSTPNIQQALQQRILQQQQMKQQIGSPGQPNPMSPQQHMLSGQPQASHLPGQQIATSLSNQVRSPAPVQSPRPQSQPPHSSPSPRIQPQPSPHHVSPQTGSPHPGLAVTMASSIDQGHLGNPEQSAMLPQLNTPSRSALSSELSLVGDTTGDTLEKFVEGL
Procedure: CPD 1 was tested in CRBN knockout (k/o) Kelly cell lines. The experimental protocol is the same as in Example 24.

[6] = target: T3, EP300 (Mus musculus, UniProt B2RWS6); experiment: Immunohistochemistry (IHC) staining of liver from MTD study, EP300; type: in vivo; settings: normal mice, 40 mpk, 14-day treatment
T3 construct: from tissue; host or cells: mouse liver (CD1 mice)
From the text: as §1

[7] = target: T2, CBP; experiment: Cellular degradation assay (immunoblot) in Kelly NB cells, CBP; type: cell-based
Procedure: Kelly Neuroblastoma cells were seeded at 1,000,000 cells per well in 6 well plates and were treated in a dose-dependent manner for 24 to 72 hours. Whole cell lysates were collected using ice cold lysis buffer [300 mM NaCl, 50 mM Tris-HCl, pH 7.5, 0.5% Triton X-100, 1% SDS, 1 mM dithiothreitol (DTT), Roche® protease inhibitor cocktail (1:000), 25 units/mL Benzonase] and blotted at a protein concentration of 20 μg. Histone extraction was performed using the EpiQuik™ Total Histone Extraction Kit (OP-0006-100, Epigentek) and blotted at a protein concentration of 4 μg.
Whole cell lysates were resolved in NuPAGE® 3-8% Tris-Acetate polyacrylamide gels (EA03785BOX, Invitrogen™) and histone extraction lysates in Bolt 4-12% Bis-Tris polyacrylamide gels (NWO4125BOX, Invitrogen™). Afterwards, gels were transferred to nitrocellulose membranes (LC2001, Invitrogen™). […]
The experimental protocol is the same as in Example 24. The protein level was determined by immunoblot using EP300 antibody, CBP antibody or H3K27ac antibody. […]

[8] = system: MM.1S cells; experiment: 6-day MTT assay, MM.1S cells; type: cell-based; settings: 0-10 μM
Procedure: Media from cell cultures was discarded. For adherent cells, the media was carefully aspirated. For suspension cells, the 96 well plate at 1,000×g, 4° C., was spun for 5 minutes in a microplate-compatible centrifuge and the media was carefully aspirated. The volume of existing media has to be the same for each sample. Fifty (50) μL of serum-free media and 50 μL of MTT solution were added into each well. The plate was incubated at 37° C. for 3 hours.
After incubation, 150 μL of MTT solvent were added into each well. The plate was wrapped in foil and shaken on an orbital shaker for 15 minutes. Absorbance was read at OD=590 nm. Reading was performed within 1 hour.

[9] = system: U266 cells; experiment: 4-day growth inhibition assay (ATPlite / cell counting kit), U266 cells; type: cell-based; settings: 0-10 μM
Procedure: An aliquot of the ATP standard solution (ATPlite™ 1000 assay kit, PerkinElmer®, USA) was used to prepare a dilution series in water. A series of 100 μL of complete culture medium was pipetted without cells into the wells of the plate. To each well was added 50 μL of the mammalian cell lysis solution, and the plate was shaken for 5 minutes in an orbital shaker at 700 rpm. 10 μL of the ATP dilution series was added to the wells, and the plate was shaken for 5 minutes in an orbital shaker at 700 rpm. 50 μL of the substrate solution was added and the plate was shaken for 5 minutes in an orbital shaker at 700 rpm. The plate dark adapted the plate for 10 minutes prior to measuring the luminescence and then preparing a standard curve.

T1 sequence (P45481 whole entry): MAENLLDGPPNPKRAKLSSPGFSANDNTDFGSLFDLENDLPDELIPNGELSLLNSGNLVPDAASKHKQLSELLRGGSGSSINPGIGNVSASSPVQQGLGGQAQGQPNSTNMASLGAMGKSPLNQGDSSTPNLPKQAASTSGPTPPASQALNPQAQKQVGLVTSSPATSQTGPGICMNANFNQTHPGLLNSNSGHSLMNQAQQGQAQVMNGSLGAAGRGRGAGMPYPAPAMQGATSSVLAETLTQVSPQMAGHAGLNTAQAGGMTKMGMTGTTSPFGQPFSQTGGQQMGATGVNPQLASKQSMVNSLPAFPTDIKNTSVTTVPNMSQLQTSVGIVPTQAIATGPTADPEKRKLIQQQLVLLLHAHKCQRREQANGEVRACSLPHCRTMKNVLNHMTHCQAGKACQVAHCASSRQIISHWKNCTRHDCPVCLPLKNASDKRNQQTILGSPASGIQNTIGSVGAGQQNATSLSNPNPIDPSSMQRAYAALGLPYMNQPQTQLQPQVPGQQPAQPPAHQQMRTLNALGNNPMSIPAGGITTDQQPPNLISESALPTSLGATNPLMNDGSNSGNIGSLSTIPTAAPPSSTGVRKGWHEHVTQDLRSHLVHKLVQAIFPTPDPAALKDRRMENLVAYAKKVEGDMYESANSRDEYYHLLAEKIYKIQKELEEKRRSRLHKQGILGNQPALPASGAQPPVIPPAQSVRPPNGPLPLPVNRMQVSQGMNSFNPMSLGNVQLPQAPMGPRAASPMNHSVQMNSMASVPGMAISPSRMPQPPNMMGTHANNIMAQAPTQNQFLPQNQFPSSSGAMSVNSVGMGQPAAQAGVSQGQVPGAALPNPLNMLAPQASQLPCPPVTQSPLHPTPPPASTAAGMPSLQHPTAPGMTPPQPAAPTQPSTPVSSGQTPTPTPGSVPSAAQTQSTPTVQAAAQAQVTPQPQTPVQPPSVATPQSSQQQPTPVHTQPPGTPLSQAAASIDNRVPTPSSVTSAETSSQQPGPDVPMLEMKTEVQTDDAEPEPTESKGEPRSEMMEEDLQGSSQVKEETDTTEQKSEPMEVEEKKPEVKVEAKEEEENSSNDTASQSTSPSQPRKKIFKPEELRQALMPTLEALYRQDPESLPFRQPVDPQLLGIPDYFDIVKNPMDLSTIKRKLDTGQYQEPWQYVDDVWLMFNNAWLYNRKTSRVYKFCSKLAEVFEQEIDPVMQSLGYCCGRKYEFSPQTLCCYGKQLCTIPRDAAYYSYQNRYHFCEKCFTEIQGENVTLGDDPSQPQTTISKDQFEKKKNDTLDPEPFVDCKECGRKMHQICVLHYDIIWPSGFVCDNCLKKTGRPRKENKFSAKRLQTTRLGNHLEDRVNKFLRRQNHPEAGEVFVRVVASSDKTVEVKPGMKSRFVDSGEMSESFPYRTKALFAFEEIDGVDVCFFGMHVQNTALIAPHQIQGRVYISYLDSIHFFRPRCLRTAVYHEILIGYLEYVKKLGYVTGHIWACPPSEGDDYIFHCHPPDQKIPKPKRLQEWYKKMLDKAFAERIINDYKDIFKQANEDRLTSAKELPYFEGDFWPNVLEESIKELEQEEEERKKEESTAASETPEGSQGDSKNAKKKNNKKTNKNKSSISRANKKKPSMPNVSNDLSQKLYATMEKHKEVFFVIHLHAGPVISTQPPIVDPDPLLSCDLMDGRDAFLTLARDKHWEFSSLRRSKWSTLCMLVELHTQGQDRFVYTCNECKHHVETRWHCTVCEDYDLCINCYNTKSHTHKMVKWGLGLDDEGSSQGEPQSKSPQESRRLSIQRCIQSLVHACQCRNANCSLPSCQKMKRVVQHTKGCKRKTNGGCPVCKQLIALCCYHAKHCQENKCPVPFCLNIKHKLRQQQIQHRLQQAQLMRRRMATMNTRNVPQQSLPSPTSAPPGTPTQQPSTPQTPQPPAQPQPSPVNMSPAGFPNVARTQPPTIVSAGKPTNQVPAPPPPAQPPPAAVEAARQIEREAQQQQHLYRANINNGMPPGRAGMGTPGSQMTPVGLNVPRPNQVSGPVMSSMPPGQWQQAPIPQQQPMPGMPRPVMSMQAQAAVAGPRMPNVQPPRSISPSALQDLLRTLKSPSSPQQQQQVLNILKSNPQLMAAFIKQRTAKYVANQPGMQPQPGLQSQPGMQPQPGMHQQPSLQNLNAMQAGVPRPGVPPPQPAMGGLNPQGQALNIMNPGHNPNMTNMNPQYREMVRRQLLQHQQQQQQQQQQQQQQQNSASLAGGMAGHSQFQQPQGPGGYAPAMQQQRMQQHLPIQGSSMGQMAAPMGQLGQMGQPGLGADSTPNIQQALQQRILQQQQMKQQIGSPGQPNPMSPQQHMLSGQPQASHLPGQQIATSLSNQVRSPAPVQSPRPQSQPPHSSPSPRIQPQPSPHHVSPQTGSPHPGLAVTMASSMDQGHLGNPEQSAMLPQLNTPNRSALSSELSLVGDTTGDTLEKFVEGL

Compound: C[C@H](N(Cc1ccc(F)cc1)C(=O)CN1C(=O)O[C@@]2(CCc3cc(NC(=O)CCCCCCCCCCCNc4ccc5c(c4)C(=O)N(C4CCC(=O)NC4=O)C5=O)ccc32)C1=O)C(F)(F)F (stereo partly drawn) [CPD 1, 12-((2-(2,6-dioxopiperidin-3-yl)-1,3-dioxoisoindolin-5-yl)amino)-N—((R)-3′-(2-((4-fluorobenzyl)((S)-1,1,1-trifluoropropan-2-yl)amino)-2-oxoethyl)-2′,4′-dioxo-2,3-dihydrospiro[indene-1,5′-oxazolidin]-5-yl)dodecanamide]
- CBP level in liver tissue [1]: No changes
- body weight loss [2]: no weight loss was observed
- tolerability [2]: well tolerated
- Kelly NB cell growth inhibition ([3]; 72 hours, ATPlite, normalized to DMSO): outperformed positive control A485; also recorded: Cell growth inhibition was observed; also recorded: much higher potency compared to inhibitor alone
- IC50 ([3]; ND: not detected): 0.166 µM
- ALP ([4]; 40 mg/kg IP daily): 51 U/L
- ALT ([4]; 40 mg/kg IP daily): 54 U/L
- AST ([4]; 40 mg/kg IP daily): 37 U/L
- Albumin ([4]; 40 mg/kg IP daily): 3.2 g/dL
- Basophils ([4]; 40 mg/kg IP daily): 0.02 K/μL
- Creatinine ([4]; 40 mg/kg IP daily): 0.17 mg/dL
- Eosinophils ([4]; 40 mg/kg IP daily): 0.10 K/μL
- GGTP ([4]; 40 mg/kg IP daily): 5
- Hematocrit ([4]; 40 mg/kg IP daily): 41.2%
- Hemoglobin ([4]; 40 mg/kg IP daily): 13.35 g/dL
- Lymphocytes ([4]; 40 mg/kg IP daily): 1.80 K/μL
- Monocytes ([4]; 40 mg/kg IP daily): 0.35 K/μL
- Neutrophils ([4]; 40 mg/kg IP daily): 1.2 K/μL
- Platelet ([4]; 40 mg/kg IP daily): 528 K/μL
- WBC ([4]; 40 mg/kg IP daily): 3.46 K/μL
- toxicity by blood sample measurements ([4]; 40 mpk IP daily): not toxic
- CBP degradation in CRBN k/o lines [5]: did not degrade
- EP300 (P300) level in liver tissue [6]: A drop in P300 levels was observed
- CBP degradation ([7]; after 48 hour): degradation of CBP was observed
- CBP level ([7]; first 36 hours): without affecting the CBP level
- growth inhibition compared with A485 [8]: outperformed inhibitor A485
- growth inhibition compared with A485 [9]: outperformed inhibitor A485
